Earlier results on one molecule are cited in patent US20240415910A1, “Toxicity-Removed and Medicinal Effect-Retained Fuzi Decoction Granule and Preparation Method Thereof” (Zhejiang Chinese Medical University, priority 2023, published 2024).

Each structure is given as a SMILES string.

The conditions of data set [1]: oral administration.
For data set [2] the following is noted: water and ethanol.

Consider `CCN1C[C@]2(COC)[C@H](O)C[C@H](OC)[C@@]34[C@@H]5C[C@@]6(O)[C@H](OC(=O)c7ccccc7)[C@@H]5[C@@](OC(C)=O)([C@@H]([C@H](OC)[C@H]23)[C@@H]14)[C@@H](O)[C@@H]6OC` [Aconitine], for which the “oral amount that can cause poisoning reactions” value in data set [1] is listed as 0.2 mg. Also, the solubility result in data set [2] was “soluble in both water and ethanol”.
